Laboratory results published in paper PMC4965148 (PLoS ONE, 2016).
“And” between values parts separate entries of the source, which are not always exact repeats. Equal entries are not always repeated. Where two headings read alike, the source gives them in different places.

What was measured:
Acetylcholinesterase = Acetylcholinesterase (Electrophorus electricus, UniProt O42275); test: Selectivity panel, enzyme; format: biochemical; conditions: Eel
Rat Brain α7 nAChR = Rat Brain α7 nAChR (Rattus norvegicus, UniProt Q05941); test: [3H]-A-585539 filtration binding
Adrenergic α2C = Adrenergic α2C (Homo sapiens, UniProt P18825); test: Selectivity panel, binding
Adenosine A2a = Adenosine A2a (Homo sapiens, UniProt P29274); test: Selectivity panel, binding
[1] = system: MK-801 treated Sprague Dawley rats; test: Rat MK-801 set shift procedure; format: in vivo
Description: Studies followed the methods described in detail in [19] and are briefly summarized here. All rats were singly housed and food-restricted (15g/rat/day) for 7 days prior to initiation of training and for the duration of the study. At the time of testing, the average (± SEM) body weight for individual treatment groups ranged from 168 ± 4 g to 180 ± 6 g. Prior to the study several habituation sessions were conducted to familiarize subjects to the maze and task requirements. The maze consisted of 4 arms (40 cm long x 14 cm wide x 20 cm high) arranged in a ‘+’ configuration and the walls and floor of each arm were distinct and colored either black or white with either a rough or smooth texture (i.e. 1 arm with each of the following combinations: white/smooth, white/rough, black/smooth, black/rough). […] The arm opposite the blocked arm was designated as the ‘start arm’ and only 1 of the 2 remaining arms was baited with food pellets. The set shift procedure comprised 2 test sessions conducted over 2 consecutive days. On the first day (Set 1) rats were required to learn the association of either the color or texture of the maze arms with the location of a food reward. Animals were randomly assigned a correct exemplar within a given dimension as being predictive of reward with 50% of the rats assigned color and 50% assigned texture. Each rat was given a maximum of 120 trials on the maze which was rotated 90 degrees between successive trials so that the adjacent arms now became either the ‘start arm’ or the arm that was blocked. Animals were allowed to visit 1 of the 2 open arms and the trial recorded as correct if the arm with the pre-assigned exemplar was visited and the food reward retrieved. The inter-trial interval was 15 s. Rats were required to achieve a performance criterion of 8 consecutive entries into the rewarded arm at which point testing stopped and the animal was presumed to have learnt the association between the correct exemplar in the assigned dimension and food reward. On day 2 (Set 2) animals were again tested in the maze configured as described for Set 1 with the exception that the dimension predicting food reward was now switched (i.e. animals trained on color for Set 1 were switched to texture and visa versa). Correct performance was again defined as 8 consecutive entries into the rewarded arm with a maximal number of 80 trials allowed. All dosing was administered on day 2 prior to Set 2 testing.

5-HT transporter = 5-HT transporter (Homo sapiens, UniProt P31645); test: Selectivity panel, binding
5-HT2B = 5-HT2B (Homo sapiens, UniProt P41595); test: Selectivity panel, functional; format: cell-based
PDE4 = test: Selectivity panel, enzyme; format: biochemical; conditions: Human
human 5-HT3A receptors = molecular target: T1, human 5-HT3A receptors (Homo sapiens, UniProt P46098); test: biochemical
T1 sequence (P46098 24-478): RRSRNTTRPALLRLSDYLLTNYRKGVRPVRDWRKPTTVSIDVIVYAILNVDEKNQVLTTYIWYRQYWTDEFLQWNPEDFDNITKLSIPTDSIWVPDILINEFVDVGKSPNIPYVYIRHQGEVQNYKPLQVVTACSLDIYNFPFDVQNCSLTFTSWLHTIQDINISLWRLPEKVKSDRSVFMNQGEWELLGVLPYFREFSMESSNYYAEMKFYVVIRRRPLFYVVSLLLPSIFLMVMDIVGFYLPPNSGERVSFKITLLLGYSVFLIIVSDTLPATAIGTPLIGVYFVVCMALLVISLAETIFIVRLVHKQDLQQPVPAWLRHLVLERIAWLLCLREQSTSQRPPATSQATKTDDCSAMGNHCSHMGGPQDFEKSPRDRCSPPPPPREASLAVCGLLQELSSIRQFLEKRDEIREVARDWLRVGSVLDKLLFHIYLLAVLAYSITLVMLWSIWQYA

[2] = molecular target: Norepinephrine transporter (Homo sapiens, UniProt P23975); test: Selectivity panel, binding
[3] = Plasma and brain concentrations after dosing; format: in vivo, rat; conditions: for concentration at 150 min / concentration at 30 min: rat, brain, read-out: Brain Mean ± SD; for concentration at 150 min: oral; for concentration at 30 min: sc
Description: At specified time points after dosing, the forebrain (for occupancy), the remaining hindbrain (for brain drug exposure) and plasma were collected, frozen in chilled isopentane and stored at -80°C until assayed.
In brief, 50 μL of the plasma sample was extracted by protein precipitation with 150 μL acetonitrile containing an internal standard and 5 μL of supernatant injected into the LC-MS/MS system. Analytes were separated by reversed phase chromatography and detection of each analyte was achieved through selected reaction monitoring mode of mass spectrometry.

Chain of Rat Brain α7 nAChR (Q05941 23-502): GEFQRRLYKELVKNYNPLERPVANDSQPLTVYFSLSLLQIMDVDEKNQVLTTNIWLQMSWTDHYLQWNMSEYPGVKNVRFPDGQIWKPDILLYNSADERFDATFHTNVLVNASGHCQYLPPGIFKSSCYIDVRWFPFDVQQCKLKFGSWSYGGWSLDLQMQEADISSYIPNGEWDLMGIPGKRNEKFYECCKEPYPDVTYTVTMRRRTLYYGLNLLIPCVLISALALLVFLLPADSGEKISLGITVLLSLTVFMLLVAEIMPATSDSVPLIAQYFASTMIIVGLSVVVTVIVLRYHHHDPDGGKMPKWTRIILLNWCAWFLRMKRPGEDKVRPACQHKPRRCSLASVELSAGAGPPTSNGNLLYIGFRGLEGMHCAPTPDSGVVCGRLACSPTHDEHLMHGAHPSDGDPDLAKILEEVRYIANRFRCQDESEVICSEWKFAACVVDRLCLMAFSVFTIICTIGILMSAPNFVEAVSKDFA
Chain of Adenosine A2a (P29274 whole entry): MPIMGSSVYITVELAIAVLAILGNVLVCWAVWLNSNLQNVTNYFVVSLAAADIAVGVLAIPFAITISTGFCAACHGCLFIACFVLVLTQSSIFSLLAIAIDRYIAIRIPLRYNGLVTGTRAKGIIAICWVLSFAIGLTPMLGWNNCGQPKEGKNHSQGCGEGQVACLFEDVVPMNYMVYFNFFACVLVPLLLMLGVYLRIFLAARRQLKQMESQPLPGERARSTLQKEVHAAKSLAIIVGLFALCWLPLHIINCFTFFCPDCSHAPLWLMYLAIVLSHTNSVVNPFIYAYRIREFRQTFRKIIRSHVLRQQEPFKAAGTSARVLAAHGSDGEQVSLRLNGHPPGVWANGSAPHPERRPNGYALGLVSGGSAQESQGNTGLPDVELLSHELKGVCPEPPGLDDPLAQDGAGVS
Chain of 5-HT transporter (P31645 whole entry): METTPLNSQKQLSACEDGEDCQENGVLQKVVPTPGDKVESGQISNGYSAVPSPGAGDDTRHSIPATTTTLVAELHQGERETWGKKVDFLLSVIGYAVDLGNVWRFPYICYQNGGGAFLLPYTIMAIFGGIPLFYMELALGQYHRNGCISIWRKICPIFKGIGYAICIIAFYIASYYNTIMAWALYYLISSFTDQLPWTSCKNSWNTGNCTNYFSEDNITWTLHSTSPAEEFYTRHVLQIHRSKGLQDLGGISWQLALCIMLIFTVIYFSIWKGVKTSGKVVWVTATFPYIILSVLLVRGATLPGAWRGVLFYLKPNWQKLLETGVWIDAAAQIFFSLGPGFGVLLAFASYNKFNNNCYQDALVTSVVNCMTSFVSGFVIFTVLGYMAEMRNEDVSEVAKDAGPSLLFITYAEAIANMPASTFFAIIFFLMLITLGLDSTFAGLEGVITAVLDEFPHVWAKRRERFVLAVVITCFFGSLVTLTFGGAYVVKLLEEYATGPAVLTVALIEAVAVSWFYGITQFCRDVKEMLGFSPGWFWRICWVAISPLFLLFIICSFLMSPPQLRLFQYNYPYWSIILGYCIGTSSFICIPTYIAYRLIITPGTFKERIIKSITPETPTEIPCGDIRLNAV
Chain of Norepinephrine transporter (P23975 whole entry): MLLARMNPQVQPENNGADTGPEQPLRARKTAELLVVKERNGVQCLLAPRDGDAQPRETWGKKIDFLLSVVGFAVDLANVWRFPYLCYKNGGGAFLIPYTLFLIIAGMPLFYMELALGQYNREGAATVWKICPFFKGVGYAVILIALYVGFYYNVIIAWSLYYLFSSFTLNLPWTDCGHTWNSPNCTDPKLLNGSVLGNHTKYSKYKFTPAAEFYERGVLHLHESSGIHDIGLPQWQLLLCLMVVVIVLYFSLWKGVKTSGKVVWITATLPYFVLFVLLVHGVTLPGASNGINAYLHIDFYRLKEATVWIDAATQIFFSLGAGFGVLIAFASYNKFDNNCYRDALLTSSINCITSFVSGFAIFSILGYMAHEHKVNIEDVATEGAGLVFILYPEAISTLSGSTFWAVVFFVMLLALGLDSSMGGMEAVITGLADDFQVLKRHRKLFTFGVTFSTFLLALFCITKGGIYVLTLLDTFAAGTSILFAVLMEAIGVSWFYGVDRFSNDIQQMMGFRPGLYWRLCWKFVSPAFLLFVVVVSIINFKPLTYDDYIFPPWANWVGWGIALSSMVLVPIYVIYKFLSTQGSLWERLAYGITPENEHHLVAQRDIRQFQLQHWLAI
Chain of 5-HT2B (P41595 whole entry): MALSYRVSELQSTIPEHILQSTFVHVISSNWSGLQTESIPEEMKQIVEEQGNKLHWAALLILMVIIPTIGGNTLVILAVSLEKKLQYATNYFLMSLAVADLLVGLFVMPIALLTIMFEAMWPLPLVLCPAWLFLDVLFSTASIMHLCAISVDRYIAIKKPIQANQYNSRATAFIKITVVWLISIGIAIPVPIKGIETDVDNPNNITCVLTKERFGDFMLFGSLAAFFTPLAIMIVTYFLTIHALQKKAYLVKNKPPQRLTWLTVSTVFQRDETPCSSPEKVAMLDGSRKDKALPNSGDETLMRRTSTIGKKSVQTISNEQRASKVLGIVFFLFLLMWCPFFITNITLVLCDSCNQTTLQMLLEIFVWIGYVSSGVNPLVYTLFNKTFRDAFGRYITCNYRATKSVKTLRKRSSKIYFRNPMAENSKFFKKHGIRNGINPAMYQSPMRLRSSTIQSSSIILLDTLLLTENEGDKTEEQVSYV
Chain of Acetylcholinesterase (O42275 24-633): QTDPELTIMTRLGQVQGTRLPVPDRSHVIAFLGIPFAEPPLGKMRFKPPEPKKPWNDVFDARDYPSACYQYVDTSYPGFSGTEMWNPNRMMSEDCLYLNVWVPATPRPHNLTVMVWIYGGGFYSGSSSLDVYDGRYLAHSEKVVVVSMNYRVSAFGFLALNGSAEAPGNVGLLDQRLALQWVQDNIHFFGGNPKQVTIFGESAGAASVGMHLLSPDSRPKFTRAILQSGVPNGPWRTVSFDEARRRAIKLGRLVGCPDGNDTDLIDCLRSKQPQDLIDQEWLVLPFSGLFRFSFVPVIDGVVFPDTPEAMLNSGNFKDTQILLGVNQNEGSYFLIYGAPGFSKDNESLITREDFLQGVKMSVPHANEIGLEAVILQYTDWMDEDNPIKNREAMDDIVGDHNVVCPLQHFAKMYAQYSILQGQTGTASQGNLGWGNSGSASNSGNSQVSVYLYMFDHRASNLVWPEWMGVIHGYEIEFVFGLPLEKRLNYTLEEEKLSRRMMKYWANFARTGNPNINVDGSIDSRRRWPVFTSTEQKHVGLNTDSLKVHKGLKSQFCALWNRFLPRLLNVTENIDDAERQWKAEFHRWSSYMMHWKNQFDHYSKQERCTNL
Chain of Adrenergic α2C (P18825 whole entry): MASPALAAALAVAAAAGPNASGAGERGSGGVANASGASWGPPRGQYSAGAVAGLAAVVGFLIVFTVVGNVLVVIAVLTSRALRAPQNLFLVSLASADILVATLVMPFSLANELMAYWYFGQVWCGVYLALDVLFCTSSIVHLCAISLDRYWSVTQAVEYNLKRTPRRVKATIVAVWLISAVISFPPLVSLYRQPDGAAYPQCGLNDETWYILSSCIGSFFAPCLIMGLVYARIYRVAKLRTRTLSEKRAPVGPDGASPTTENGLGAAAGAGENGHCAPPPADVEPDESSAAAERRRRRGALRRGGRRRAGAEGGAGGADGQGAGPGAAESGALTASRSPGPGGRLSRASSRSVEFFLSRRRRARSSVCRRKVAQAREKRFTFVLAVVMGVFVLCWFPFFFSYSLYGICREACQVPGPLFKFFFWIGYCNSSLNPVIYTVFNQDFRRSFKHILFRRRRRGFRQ

c1cn(-c2cc(NC3=NC[C@@]4(CN5CCC4CC5)O3)ncn2)cn1 [BMS-933043, (2R)-N-(6-(1H-imidazol-1-yl)-4-pyrimidinyl)-4'H-spiro[4-azabicyclo[2.2.2]octane-2,5'-[1,3]oxazol]-2'-amine]
IC50 (Acetylcholinesterase): > 60000 nM
Ki (Rat Brain α7 nAChR; Rat Brain α7 nAChR Ki (individual)): 2.67 nM and 2.99 nM and 3.08 nM and 3.74 nM and 3.2 nM and 3.82 nM
Ki (Rat Brain α7 nAChR; Rat Brain α7 nAChR Mean ± SD Ki): 3 nM
Ki (Rat Brain α7 nAChR; read-out: Rat Brain α7 nAChR Mean ± SD Ki): 3.3 nM
IC50 (Adrenergic α2C): > 30000 nM
IC50 (Adenosine A2a): > 30000 nM
Number of trials to criteria Mean ± SEM ([1]; 0.3 mg/kg po / MK-801, 0.3-3 mg/kg study): 66.4 ± 3.2
Number of trials to criteria Mean ± SEM ([1]; 1 mg/kg po / MK-801, 0.3-3 mg/kg study): 54.4 ± 4.8
Number of trials to criteria Mean ± SEM ([1]; 3 mg/kg po / MK-801, 0.3-3 mg/kg study): 50.3 ± 4.3
Number of trials to criteria Mean ± SEM ([1]; 3 mg/kg po / MK-801, 3-30 mg/kg study): 48.3 ± 5.8
Number of trials to criteria Mean ± SEM ([1]; 10 mg/kg po / MK-801, 3-30 mg/kg study): 54.0 ± 3.2
Number of trials to criteria Mean ± SEM ([1]; 30 mg/kg po / MK-801, 3-30 mg/kg study): 68.0 ± 4.7
perseverative errors in MK-801-treated animals ([1]; po): decreased perseverative errors
IC50 (5-HT transporter): > 30000 nM
EC50 (5-HT2B): > 10000 nM
IC50 (PDE4): > 30000 nM
Ki (human 5-HT3A receptors; HEK293/human 5-HT3A Ki (individual), individual determinations): 2310 nM and 2590 nM
Ki (human 5-HT3A receptors; human 5-HT3A mean Ki ± SD): 2450 nM
IC50 [2]: > 30000 nM
Brain Mean ± SD ([3]; Rat MK-801 Set Shift (0.3-3 mg/kg study), 0.30 mg/kg po, 150 min): < LLQ
concentration at 150 min ([3]; 1 mg/kg, Rat MK-801 Set Shift (0.3-3 mg/kg study), 1 mg/kg po, 150 min): 13 ± 3 nM
concentration at 150 min ([3]; 3 mg/kg, Rat MK-801 Set Shift (0.3-3 mg/kg study), 3 mg/kg po, 150 min): 100 ± 39 nM
concentration at 150 min ([3]; 3 mg/kg, Rat MK-801 Set Shift (3-30 mg/kg study), 3 mg/kg po, 150 min): 132 ± 17 nM
concentration at 150 min ([3]; 10 mg/kg, Rat MK-801 Set Shift (3-30 mg/kg study), 10 mg/kg po, 150 min): 533 ± 111 nM
concentration at 150 min ([3]; 30 mg/kg, Rat MK-801 Set Shift (3-30 mg/kg study), 30 mg/kg po, 150 min): 2220 nM
concentration at 30 min ([3]; 0.03 mg/kg, Rat MMN, 0.03 mg/kg sc): 13 nM
concentration at 30 min ([3]; 0.3 mg/kg, Rat MMN, 0.30 mg/kg sc): 13 ± 0.65 nM
concentration at 30 min ([3]; 0.3 mg/kg, Rat N40 Gating, 0.30 mg/kg sc): 21 ± 6 nM
concentration at 30 min ([3]; 0.56 mg/kg, Rat N40 Gating, 0.56 mg/kg sc): 42 ± 10 nM
concentration at 30 min ([3]; 1 mg/kg, Rat MMN, 1 mg/kg sc): 74 ± 18 nM
concentration at 30 min ([3]; 1 mg/kg, Rat N40 Gating, 1 mg/kg sc): 97 ± 14 nM
concentration at 30 min ([3]; 3 mg/kg, Rat MMN, 3 mg/kg sc): 378 ± 161 nM
concentration at 30 min ([3]; 3 mg/kg, Rat N40 Gating, 3 mg/kg sc): 372 ± 33 nM
